Molecules are shown by their SMILES.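 Five concentrations, 48 hours, 96-well plates. Here, GI50 denotes the concentration required for 50% inhibition of growth. The concentration for full growth arrest is given as TGI.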

Consider 26 compounds from PubChem BioAssay (NCI).

Common to all, as to test: inhibition of tumour cell growth, NCI panel, 48 h
The test system of assay [1] is SF-268 CNS.
The subject of assay [2] is MALME-3M melanoma.
In assay [3] the test system is ACHN renal.
Assay [4] has as its system U251 CNS.
Assay [5] relates to M14 melanoma.
Assay [6] has as its system EKVX NSCLC.
Assay [7] deals with SF-539 CNS.
Assay [8] relates to UO-31 renal.
Assay [9] deals with DU-145 prostate.
The test system of assay [10] is HCT-15 colon.

In the case of `O=C1c2ccccc2-c2[nH]c3cn[nH]c(=O)c3c21`, the TGI in assay [1], in [2], in assay [3], in [4], in [5] and in assay [6] was > 100 µM in each case. Besides, the TGI in [7], in assay [8], in assay [9] and in [10] was > 100 µM in each case.
In the case of `NS(=O)(=O)c1ccc(NNc2c3ccccc3nc3c(C(=O)Nc4ccc(S(=O)(=O)Nc5ncccn5)cc4)cccc23)cc1`, the TGI in assay [1], in [2], in [3], in assay [4], in [5] and in assay [6] was > 25 µM each time. For the same compound, the TGI in assay [7], in assay [8], in assay [9] and in [10] was > 25 µM in each case.
Consider `CCN(CC)c1ccc2cc(-c3nc4ccccc4c(=O)[nH]3)c(=N)oc2c1`, for which the TGI in assay [1], in assay [2], in assay [3], in [4], in [5] and in [6] was > 100 µM each time. Also, the TGI in [7], in [8], in assay [9] and in assay [10] was > 100 µM each time.
As to `NC(=O)CO/N=C1/C(c2c(O)[nH]c3ccccc23)=Nc2ccccc21`, the TGI in [1], in assay [2], in assay [3], in assay [4], in assay [5] and in assay [6] was > 100 µM throughout. Also, the TGI in assay [7], in assay [8], in assay [9] and in [10] was > 100 µM each time.
As for `Cc1cc2cc3c(cc2c(-c2ccc(N)cc2)n1)OCO3`, the TGI is 79.3 µM in assay [1]; > 100 µM in [2]; > 100 µM in [3]; > 100 µM in [4]; > 100 µM in [5]; > 100 µM in assay [6]. In addition, the TGI in assay [7], in assay [8], in assay [9] and in assay [10] was > 100 µM each time.
On to `CC(=O)/C(=C\c1ccc(Cl)c(Cl)c1)C(=O)C(C)CN(C)C` (centres undefined), for which the TGI in [1] was 23.4 µM; in assay [2], 21.9 µM; in [3], 17.9 µM; in assay [4], 12.9 µM; in assay [5], 24.2 µM; in [6], 27.8 µM. In addition, the TGI in assay [7] stood at 13.4 µM; in assay [8], 14.5 µM; in assay [9], 17.3 µM; in [10], 10.1 µM.
For `O=C(NNCc1ccc(Cl)cc1)Nc1cccc2ccccc12`, the TGI in assay [1], in assay [2], in assay [3], in assay [4], in assay [5] and in assay [6] was > 100 µM throughout. Moreover, the TGI in [7], in [8], in assay [9] and in assay [10] was > 100 µM each time.
Turning to `CN1C(=O)C(O)CC1c1cccc(C(F)(F)F)c1` (centres undefined), the TGI in assay [1], in assay [2], in [3], in [4], in assay [5] and in assay [6] was > 100 µM in each case. The TGI in assay [7], in assay [8], in assay [9] and in assay [10] was > 100 µM each time.
Regarding `O=C(c1ccco1)N(C(=S)OC12CC3CC(CC(C3)C1)C2)c1ccccc1`, the TGI in [1] is > 100 µM; in [2] it was 65.7 µM; in assay [3], 83.6 µM; in assay [4], 59.5 µM; in assay [5], 43.7 µM; in assay [6], 50.1 µM. Further, the TGI is 41.7 µM in [7], 98.7 µM in assay [8], > 100 µM in assay [9] and > 100 µM in [10].
`CC(C)OC1OC(CO)C(O)CC1n1cc(F)c(=O)[nH]c1=O` (centres undefined): the TGI in assay [1], in [2], in assay [3], in assay [4], in assay [5] and in assay [6] was > 100 µM each time. Moreover, the TGI in assay [7], in assay [8], in assay [9] and in assay [10] was > 100 µM in each case.
For `O=C1CC(n2cccc2)c2c(Br)sc(Br)c21` (centres undefined), the TGI amounted to 31.2 µM in [1]; 38 µM in assay [2]; 31.8 µM in assay [3]; 28.4 µM in [4]; 30.2 µM in assay [5]; 33.3 µM in [6]. In addition, the TGI is 35 µM in assay [7], 5.66 µM in assay [8], 31.8 µM in assay [9] and 30.7 µM in assay [10].
In the case of `COC(=O)CCCC(=O)NC1=C(NCc2ccccc2)C(=O)c2ccccc2C1=O`, the TGI in [1] was > 100 µM; in assay [2] it was 37.7 µM; in [3], > 100 µM; in [4], > 100 µM; in assay [5], > 100 µM; in [6] it was > 100 µM. The TGI in assay [7], in assay [8], in [9] and in assay [10] was > 100 µM throughout.
`COC(=O)[C@@H]1CN(C(=O)c2ccccc2)C(=O)N1C(=O)OCc1ccccc1`: the TGI in [1], in assay [2], in [3], in [4], in assay [5] and in assay [6] was > 100 µM throughout. Also, the TGI in assay [7], in assay [8], in assay [9] and in assay [10] was > 100 µM in each case.
`Cc1ccc(S(=O)(=O)N(CC(O)COc2ccccc2)c2ccc(F)cc2F)cc1` (centres undefined): the TGI in assay [1] is 31.8 µM; in assay [2], 36 µM; in assay [3], 30.6 µM; in [4] it was 27.5 µM; in assay [5], 34.1 µM; in [6], 35.7 µM. Besides, the TGI in assay [7] was found to be 30 µM; in [8] it was 26.9 µM; in [9], 46.9 µM; in assay [10], 30.8 µM.
`CN(C)C(=S)Oc1ccc2ccc(=O)oc2c1`: the TGI in assay [1], in assay [2], in [3], in [4], in assay [5] and in assay [6] was > 100 µM each time. For the same compound, the TGI in assay [7], in assay [8], in assay [9] and in assay [10] was > 100 µM each time.
As to `CC(C)(C)C1CC[C@H](O)[C@H]([C@H](O)CC2CC(=O)N(c3ccccc3)C(=O)C2)C1` (some centres undefined), the TGI in assay [1], in assay [2], in assay [3], in assay [4], in assay [5] and in assay [6] was > 100 µM each time. Further, the TGI in [7], in assay [8], in assay [9] and in assay [10] was > 100 µM throughout.
As to `S=C(NCc1ccccc1)N/N=C/c1ccccn1`, the TGI in assay [1] is > 91.4 µM; in assay [2], > 100 µM; in [3], > 56.1 µM; in assay [4] it was 23.9 µM; in [5] it was 9.32 µM; in assay [6], > 100 µM. The TGI in assay [7] is > 100 µM; in assay [8] it was 21 µM; in [9], > 100 µM; in [10], > 40.5 µM.
For the compound `COC(=O)c1c(-c2ccc(Cl)cc2)cc2c3ccccc3n(C)c2c1C(=O)OC`, the TGI in assay [1], in [2], in assay [3], in assay [4], in assay [5] and in assay [6] was > 100 µM in each case. Besides, the TGI in assay [7], in [8], in assay [9] and in [10] was > 100 µM each time.
Turning to `C=C1C(=O)O[C@H]2[C@H]3O[C@@H](C[C@@H]12)[C@](C)(O)CC[C@@H]1O[C@@]1(C)CCC[C@H]3C`, the TGI worked out at 34.2 µM in assay [1]; 31 µM in assay [2]; 31.4 µM in assay [3]; 84.5 µM in assay [4]; 29.3 µM in [5]; 54.6 µM in assay [6]. The TGI in assay [7] was 53.7 µM; in [8] it was 69.3 µM; in assay [9] it was 33.4 µM; in [10] it was 37.9 µM.
`C=CC1CN2CCC1CC2C(O)c1ccnc2ccccc12` (centres undefined): the TGI in assay [1], in assay [2], in assay [3], in [4], in [5] and in [6] was > 100 µM throughout. For the same compound, the TGI in assay [7], in assay [8], in [9] and in [10] was > 100 µM each time. Moreover, the GI50 in [2] is 0.0846 µM; in assay [5] it was > 100 µM; in assay [6], > 100 µM; in assay [8], 36.8 µM.
As for `CCOC(=O)c1cnccc1CC1(C#N)c2ccccc2C=CN1C(=O)c1ccccc1` (centres undefined), the TGI in assay [1] was 82 µM; in assay [2], 26.5 µM; in [3], > 100 µM; in [4] it was > 100 µM; in assay [5], 79.1 µM; in assay [6] it was > 100 µM. The TGI in assay [7] is 75.6 µM; in [8], 91.1 µM; in assay [9], > 100 µM; in assay [10] it was > 100 µM.
As for `N#Cc1nc(C#N)n(C(=O)c2ccccc2)c1NC(=O)c1ccccc1`, the TGI in assay [1], in [2], in assay [3], in assay [4], in assay [5] and in assay [6] was > 100 µM throughout. In addition, the TGI in assay [7], in assay [8], in assay [9] and in [10] was > 100 µM each time.
On to `CCC(CC(C)C)Nc1ccc(NC(CC)CC(C)C)cc1` (centres undefined), for which the GI50 was 16 µM in [1]; 14.7 µM in [2]; 15.3 µM in assay [3]; 13 µM in assay [4]; 16.8 µM in assay [5]; 16.7 µM in assay [6]. The GI50 in assay [7] was 17.1 µM; in assay [8] it was 14.8 µM; in assay [9], 26.5 µM; in [10] it was 14.8 µM. For the same compound, the TGI in [1] came out at 30.6 µM; in assay [2], 34.3 µM; in assay [3], 28.5 µM; in assay [4], 26.6 µM; in [5], 34.7 µM; in assay [6] it was 37.6 µM. Besides, the TGI in [7] turned out to be 33 µM; in assay [8], 29.3 µM; in assay [9], 82.1 µM; in [10] it was 27.9 µM.
As for `O=C(/C=C/c1cccs1)c1ccccc1Cl`, the TGI is 26.4 µM in [1]; 26.7 µM in assay [2]; 29.4 µM in [3]; 27.7 µM in assay [4]; > 55.9 µM in assay [5]; 30.8 µM in assay [6]. Besides, the TGI is > 69.1 µM in [7], 17.2 µM in assay [8], 26.4 µM in assay [9] and 33.4 µM in assay [10].
As to `CC(C)C1(O)C(=O)N(c2c(F)c(F)c(F)c(F)c2F)C(=S)N1CCSc1ccccc1` (centres undefined), the TGI in assay [1] was determined as 33.2 µM; in assay [2], 31.6 µM; in assay [3], 31.3 µM; in [4] it was 32.1 µM; in assay [5] it was 31.9 µM; in assay [6], 33.5 µM. Further, the TGI came out at 35.1 µM in [7], 28.9 µM in assay [8], 30.9 µM in assay [9] and 33 µM in assay [10].
Turning to `CS(=O)(=O)NC12CCC(c3ccccc31)c1ccccc12`, the TGI in assay [1], in [2], in assay [3], in assay [4], in assay [5] and in assay [6] was > 100 µM throughout. Moreover, the TGI in [7], in assay [8], in assay [9] and in assay [10] was > 100 µM each time.
